Entries after “also recorded” stand apart in the source; their conditions may differ. Bridge positions count the residues as written; N and C are the ends. Ends that are not written are not given here.
Key:
C57BL/6J mice [1] = experiment: Oral glucose tolerance test (OGTT), blood glucose; format: in vivo, mouse; conditions: AVP 1 mg/kg i.p., 15 min before 1.5 g/kg oral glucose; 8 mice/group (Fig. 5A, 5B)
Description: (§1) Oral glucose tolerance test and insulin detection
(§2) For oral glucose tolerance test (OGTT), mice were fasted overnight and then given either 0.1% DMSO in normal saline (vehicle) or 1 mg/kg AVP and 10 mg/kg Exendin (9–39) (n = 8 per treatment group) via intraperitoneal injection. A glucose bolus was delivered (1.5 g/kg orally) 15 min later. Blood was collected from a tail nick at designated time points, and plasma glucose levels were determined with a glucose meter. To detect insulin level, blood was collected from the retro-orbital plexus of mice 15 min after glucose administration (n = 4 per treatment group) and detected with an ELISA kit for mouse insulin (Crystal Chem, #90080).

isolated mouse islets [2] = experiment: Glucagon secretion from isolated mouse islets; format: cell-based, mouse (C57BL/6J)
Description: Hormone secretion from isolated islets
Islets were isolated from anesthetized male C57BL/6J mice (8 wk old). 1 mg/mL Collagenase P (Roche, #11213873001) solution was injected into the pancreas via the bile duct, and the pancreas was digested at 37 °C for 15 min. The mixture was centrifuged at 800 rpm for 3 min to collect the precipitate, which was then washed three times with HBSS (5.4 mM KCl, 0.3 mM Na2HPO4, 0.4 mM KH2PO4, 4.2 mM NaHCO3, 1.3 mM CaCl2, 0.5 mM MgCl2, 0.6 mM MgSO4, 137 mM NaCl, 5.6 mM D-glucose, pH 7.4). Then, the precipitate was re-suspended in HBSS and filtered through a 70 μm filter to obtain islets. The detached islets were cultured overnight in RPMI 1640 supplemented with 10% fetal bovine serum (FBS). The islets were transferred to 48-well plates and starved with KRBB (118.5 mM NaCl, 2.54 mM CaCl2, 1.19 mM KH2PO4, 4.74 mM KCl, 25 mM NaHCO3, 1.19 mM MgSO4, 10 mM HEPES, pH 7.4) containing 0.5% BSA for 60 min. Subsequently, the islets were incubated with 0.1% dimethyl sulfoxide (DMSO) or compounds for a duration of 2 h at 37 °C in 1 mL KRBB containing 16.8 mM or 2.8 mM glucose. Supernatants were collected, and the insulin concentrations were measured using HTRF Insulin kit (Cisbio, #62INSPEC) and an Envision Plate Reader (PerkinElmer).

isolated mouse islets [3] = experiment: Insulin secretion from isolated mouse islets; format: cell-based, mouse (C57BL/6J); conditions: for insulin secretion from isolated islets: 2 h
INS-1E cells = experiment: Insulin secretion from INS-1E cells; format: cell-based, rat; conditions: 100 nM, 1 h, 37 °C, 16.8 mM glucose, 5 × 10^4 cells/well; HTRF; 3 technical replicates (Fig. 1E)
Description: (§3) Cell culture and hormone secretion
(§4) The INS-1E cells were cultured in RPMI 1640 supplemented with 10% FBS, the αTC1-9 cells were cultured in low glucose DMEM supplemented with 10% FBS and the MIN6 cells were cultured in high glucose DMEM supplemented with 10% FBS. Cells were grown in 96-well plates at a density of 5 × 10^4 cells (INS-1E and αTC1-9) or 2 × 10^4 cells (MIN6) per well. After preincubation for 30 min at 37 °C in KRBB, the cells were incubated with either 0.1% DMSO or compounds for 1 h at 37 °C in KRBB containing either 16.8 mM or 2.8 mM glucose. […] For co-culturing of INS-1E and αTC1-9 cells, RPMI 1640 supplemented with 10% FBS was used, both cell densities were 2.5 × 10^4 cells per well in 96-well plates.

MIN6 cells = experiment: Insulin secretion from MIN6 cells; format: cell-based, mouse; conditions: 100 nM, 1 h, 37 °C, 16.8 mM glucose, 2 × 10^4 cells/well; HTRF; 3 technical replicates (Fig. 1F)
Description: as §3, §4

islet β cells = conditions: cytokine-induced apoptosis; cited from earlier work
Source text: (§5) AVP regulates the hypothalamic-pituitary-adrenal (HPA) axis, stimulating the release of corticotropin-releasing hormone (CRH) through V1bR activation, thereby promoting CRH-induced insulin secretion.

[4] = tested on: mouse and rat pancreas, and isolated mouse islets; conditions: mouse and rat pancreas, and isolated mouse islets; cited from earlier work
Source text: as §5

αTC1-9 cells = experiment: Glucagon secretion from αTC1-9 cells; format: cell-based, mouse; conditions: 100 nM, 1 h, 16.8 mM glucose, 5 × 10^4 cells/well; HTRF; 3 technical replicates (Fig. 3F)
Description: as §3, §4

[5] = tested on: co-culture of INS-1E and αTC1-9 cells; experiment: Glucagon secretion from co-cultured INS-1E and αTC1-9 cells; format: cell-based, rat (INS-1E) and mouse (αTC1-9); conditions: 100 nM, 1 h, 16.8 mM glucose, both 2.5 × 10^4 cells/well (Fig. 3G)
Description: as §3, §4

[6] = tested on: pancreas of mouse and rat, and the α cell line InR1G9; conditions: cited from earlier work
Source text: However, this regulatory mechanism is impaired in individuals with type 1 diabetes. Compared to wild-type mice, V1b receptor k ...

[7] = tested on: co-culture of INS-1E and αTC1-9 cells; experiment: Insulin secretion from co-cultured INS-1E and αTC1-9 cells; format: cell-based, rat (INS-1E) and mouse (αTC1-9); conditions: 1 h
Description: as §3, §4
Specific sequences of shRNAs (Table 1) targeting GCGR or GLP-1R mRNA were constructed into pLKO.1 puro lentiviral vector (Addgene, #8453). Lentiviral vectors and packaging vectors were transfected into HEK293T cells by FuGENE HD Transfection Reagent (Promega, #E2312) to produce virus particles. INS-1E cells were seeded onto 6-well plates at a density of 5 × 10^5 cells per well and incubated with viruses and 5 μg/mL polybrene for 48 h. Transfected INS-1E cells were collected for real-time qPCR and co-culture experiments.

C57BL/6J mice [8] = experiment: Plasma insulin in OGTT; format: in vivo, mouse; conditions: AVP 1 mg/kg i.p.; blood 15 min after glucose administration; ELISA; 4 mice/group (Fig. 5C)
Description: as §1, §2

## Arginine vasopressin (CYFQNCPRG-NH2; disulfide 1-6; ends not checked; UniProt P01185 20-28, looked up) [AVP, neuropeptide composed of nine amino acids]
C57BL/6J mice [1]
  blood glucose levels during OGTT: significantly lowered blood glucose levels during the OGTT
Isolated mouse islets [2]; AVP (100 nM), low (2.8 mM) and high (16.8 mM) glucose (Fig. 3C)
  glucagon secretion from isolated islets, glucose dependence: induced glucagon secretion from the isolated islets in low- and high-glucose conditions
Isolated mouse islets [2]; various concentrations of AVP, 2 h, 16.8 mM glucose, 10 islets/well, 3 technical replicates (Fig. 3A)
  glucagon secretion from isolated islets: induced dose-dependent secretion of glucagon
Isolated mouse islets [3]; 100 nM, AVP compared with GLP-1, 3 technical replicates (Fig. 1D)
  insulin secretion from isolated islets: stimulated similar level of glucose-dependent insulin secretion from freshly isolated islets as GLP-1
Isolated mouse islets [3]; 100 nM, low (2.8 mM) and high (16.8 mM) glucose (Fig. 3D, 3E)
  insulin secretion from isolated islets, glucose dependence: only induced insulin secretion from the islets in high-glucose medium
Isolated mouse islets [3]; various concentrations of AVP, 37 °C, 10 islets/well, 16.8 mM glucose KRBB, HTRF, mean ± SEM, 3 technical replicates (Fig. 1A)
  insulin secretion from isolated islets: induced insulin secretion in a dose-dependent manner in high glucose condition
INS-1E cells
  insulin secretion from INS-1E cells: failed to induce insulin release; also recorded: could not directly induce insulin secretion from INS-1E cells
MIN6 cells
  insulin secretion from MIN6 cells: failed to induce insulin release
Islet β cells
  protection of islet β cells: confer protection on islet β cells against cytokine-induced apoptosis
[4]
  insulin secretion: enhance insulin secretion
αTC1-9 cells
  glucagon secretion from αTC1-9 cells: could induce glucagon release from αTC1-9 cells
[5]
  glucagon secretion from co-culture: induce secretion of glucagon and insulin in high-glucose condition
[6]
  glucagon secretion: stimulate glucagon secretion
[7]; 100 nM, 16.8 mM glucose, both 2.5 × 10^4 cells/well (Fig. 3H)
  insulin secretion from co-culture: induce secretion of glucagon and insulin in high-glucose condition
[7]; INS-1E infected with shRNA-Gcgr, AVP (1 nM), 16.8 mM glucose (Fig. 4K)
  AVP-induced insulin secretion from co-culture after Gcgr knockdown: no significant effect
[7]; INS-1E infected with shRNA-Glp1r, AVP (1 nM), 16.8 mM glucose (Fig. 4L)
  AVP-induced insulin secretion from co-culture after Glp1r knockdown: significantly attenuated AVP-induced insulin secretion
C57BL/6J mice [8]
  plasma insulin in OGTT: significantly stimulated the release of insulin

Source: PMC11365140 (Cell & Bioscience, 2024)
